Structures can show the parent of a compound that is named as a salt. Where two headings read alike, the source gives them in different places.
Tests used:
[1] = Acute toxicity, intravenous (once), ddY mice; type: in vivo; conditions: mouse, in vivo, formulated per Preparation Example
Source text: In Table 7 are shown acute toxicity values (LD50, mg/kg) in ddY mice in the case of intravenously administering (once) each of the compounds of this invention in the form of preparations shown in the Preparation Examples shown in Table 7.

P-388 leukemia cells = experiment: Antitumor activity: P-388 leukemia cells inoculated intraperitoneally, drug administered intravenously, BDF1 mice; type: in vivo; conditions: for response vs control in vivo at 20 mg/kg: dose b: 20 mg/kg × 3, i.v. on days 1, 5 and 9; for response vs control in vivo at 80 mg/kg: dose f: 80 mg/kg × 3, i.v. on days 1, 5 and 9
Experimental: Into BDF1 mice were inoculated intraperitoneally P-388 leukemia cells at a rate of 1×10^6 cells/mouse, and each drug to be tested was administered intravenously on the first, fifth and ninth days after the inoculation. […] The drugs were as follows solutions prepared by adding physiological saline to each of compound Nos. 8, 9, 10, 11, 17, 34, 42, 59, 80 and 134; suspensions prepared by dispersing each of compound Nos. 41, 78, 98, 100, 130, 191, 212, 213, 215, 227 and 230 to 232 and a small amount of sodium carboxymethyl cellulose (Na.CMC) in physiological saline, […]

[2] = Mus musculus, P388, iv, BDF1 mice, P-388 i.p., read-out: T/C (%) of MST
[3] = Mus musculus, P388, iv, dose c: 40 mg/kg × 3, i.v. on days 1, 5 and 9, BDF1 mice, P-388 i.p., read-out: T/C (%) of MST

In the case of COC1C(O)C(C)OC(OC2C(Oc3cccc4c(OC(=O)C(C)CNC(C)C)c5c(=O)oc6ccc(C)c7c(=O)oc(c34)c5c67)OC(C)C3OC(c4ccccc4)OC32)C1O (stereo not drawn) [Compound No. 2, 6-O-(N-Isopropyl-β-Amino-Isobutyryl)-3',4'-O-Benzylidene-Chartreusin Hydrochloride], the LD50 ([1]; iv) is reported as ≥ 40 mg/kg, the response vs control in vivo at 20 mg/kg (P-388 leukemia cells; [2]) is reported as 184% and the response vs control in vivo at 40 mg/kg (P-388 leukemia cells; [3]) is reported as 216%.

With CCCC(=O)Oc1c2cccc(O[C@@H]3O[C@H](C)[C@@H]4OC(c5ccccc5OC)O[C@@H]4[C@H]3O[C@H]3O[C@H](C)[C@H](O)[C@H](OC)[C@H]3O)c2c2oc(=O)c3c(C)ccc4oc(=O)c1c2c43 (some centres unmarked) [compound 216] the LD50 [1] was ≥ 40 mg/kg and the response vs control in vivo at 40 mg/kg (P-388 leukemia cells; Mus musculus, P388, iv, read-out: T/C (%) of MST) was 171%.

With COC1C(O)C(C)OC(OC2C(Oc3cccc4c(OC(=O)C(C)CNC(=O)C(F)(F)F)c5c(=O)oc6ccc(C)c7c(=O)oc(c34)c5c67)OC(C)C3OC(c4ccccc4)OC32)C1O (stereo not drawn) [Compound No. 12, 6-O-(N-Trifluoroacetyl-β-Amino-Isobutyryl)-3',4'-O-Benzylidene-Chartreusin] the LD50 ([1]; iv) was ≥ 40 mg/kg, the response vs control in vivo at 20 mg/kg (P-388 leukemia cells; [2]) was 203% and the “T/C (%) of MST” value (P-388 leukemia cells; dose c: 40 mg/kg × 3, i.v. on days 1, 5 and 9, BDF1 mice, P-388 i.p.) was 241%.

In the case of COC1C(O)C(C)OC(OC2C(Oc3cccc4c(OC(=O)CCNC(=O)OCc5ccccc5)c5c(=O)oc6ccc(C)c7c(=O)oc(c34)c5c67)OC(C)C3OC(c4ccccc4)OC32)C1O (centres unmarked) [compound 72], the LD50 ([1]; iv) is reported as ≥ 40 mg/kg and the response vs control in vivo at 20 mg/kg (P-388 leukemia cells; [2]) is reported as 167%.

For COC1C(O)C(C)OC(OC2C(Oc3cccc4c(OC(=O)CCN5CCCC5)c5c(=O)oc6ccc(C)c7c(=O)oc(c34)c5c67)OC(C)C3OC(c4ccccc4)OC32)C1O (centres unmarked) [Compound No. 9], the LD50 ([1]; iv) was ≥ 40 mg/kg, the response vs control in vivo at 20 mg/kg (P-388 leukemia cells; [2]) was 165% and the response vs control in vivo at 40 mg/kg (P-388 leukemia cells; [3]) was 292%.

For C=CC(=O)Oc1c2cccc(O[C@@H]3O[C@H](C)[C@@H]4OC(C)(C)O[C@@H]4[C@H]3O[C@H]3O[C@H](C)[C@H](O)[C@H](OC)[C@H]3O)c2c2oc(=O)c3c(C)ccc4oc(=O)c1c2c43 [compound 197], the LD50 ([1]; iv) was ≥ 80 mg/kg, the response vs control in vivo at 40 mg/kg (P-388 leukemia cells; [3]) was 144% and the response vs control in vivo at 80 mg/kg (P-388 leukemia cells; [2]) was 171%.

With COC1C(O)C(C)OC(OC2C(Oc3cccc4c(OC(=O)c5cccc(N(C)C)c5)c5c(=O)oc6ccc(C)c7c(=O)oc(c34)c5c67)OC(C)C3OC(c4cccc(F)c4)OC32)C1O (centres unmarked) [Compound No. 158, 6-O-(m-Dimethylaminobenzoyl)-3',4'-O-(m-Fluorobenzylidene)-Chartreusin] the LD50 ([1]; iv) was ≥ 80 mg/kg, the response vs control in vivo at 40 mg/kg (P-388 leukemia cells; [3]) was 174% and the response vs control in vivo at 80 mg/kg (P-388 leukemia cells; [2]) was 205%.

In the case of C=CCCC(=O)Oc1c2cccc(OC3OC(C)C4OC(c5cccc([N+](=O)[O-])c5)OC4C3OC3OC(C)C(O)C(OC)C3O)c2c2oc(=O)c3c(C)ccc4oc(=O)c1c2c43 (centres unmarked) [Compound No. 160], the LD50 ([1]; iv) is reported as ≥ 80 mg/kg, the response vs control in vivo at 40 mg/kg (P-388 leukemia cells; [3]) is reported as 160% and the response vs control in vivo at 80 mg/kg (P-388 leukemia cells; [2]) is reported as 218%.

With CO[C@H]1[C@@H](O)[C@@H](C)O[C@H](O[C@H]2[C@H](Oc3cccc4c(OC(=O)COC(=O)c5ccccc5)c5c(=O)oc6ccc(C)c7c(=O)oc(c34)c5c67)O[C@H](C)[C@@H]3OC(C)(C)O[C@@H]32)[C@@H]1O [compound 199] the LD50 ([1]; iv) was ≥ 60 mg/kg and the response vs control in vivo at 50 mg/kg (P-388 leukemia cells; Mus musculus, P388, iv, dose d: 50 mg/kg × 3, i.v. on days 1, 5 and 9, BDF1 mice, P-388 i.p., read-out: T/C (%) of MST) was 159%.

With COC1C(O)C(C)OC(OC2C(Oc3cccc4c(OC(=O)C(C)CNC(=O)OCc5ccccc5)c5c(=O)oc6ccc(C)c7c(=O)oc(c34)c5c67)OC(C)C3OC(c4cccc(F)c4)OC32)C1O (centres unmarked) [Compound No. 60] the LD50 ([1]; iv) was ≥ 40 mg/kg, the response vs control in vivo at 20 mg/kg (P-388 leukemia cells; [2]) was 176% and the response vs control in vivo at 40 mg/kg (P-388 leukemia cells; [3]) was 210%.

With COC1C(O)C(C)OC(OC2C(Oc3cccc4c(OC(=O)CCCCCN)c5c(=O)oc6ccc(C)c7c(=O)oc(c34)c5c67)OC(C)C3OC(C)(C)OC32)C1O (centres unmarked) [compound 59] the LD50 ([1]; iv) was ≥ 100 mg/kg, the response vs control in vivo at 40 mg/kg (P-388 leukemia cells; [3]) was 146% and the response vs control in vivo at 80 mg/kg (P-388 leukemia cells; [2]) was 218%.

For COC1C(O)C(C)OC(OC2C(Oc3cccc4c(OC(=O)C(CC[S+](C)[O-])NC(=O)OCc5ccccc5)c5c(=O)oc6ccc(C)c7c(=O)oc(c34)c5c67)OC(C)C3OC(C)(C)OC32)C1O (centres unmarked) [compound 102], the LD50 ([1]; iv) was ≥ 100 mg/kg and the response vs control in vivo at 80 mg/kg (P-388 leukemia cells; [2]) was 187%.

With CO[C@H]1[C@@H](O)[C@@H](C)O[C@H](O[C@H]2[C@H](Oc3cccc4c(OC(=O)c5ccc(Br)cc5)c5c(=O)oc6ccc(C)c7c(=O)oc(c34)c5c67)O[C@H](C)[C@@H]3OC(C)(C)O[C@@H]32)[C@@H]1O [Compound No. 179] the LD50 ([1]; iv) was ≥ 80 mg/kg, the response vs control in vivo at 40 mg/kg (P-388 leukemia cells; [3]) was 136% and the response vs control in vivo at 80 mg/kg (P-388 leukemia cells; [2]) was 208%.

For COC1C(O)C(C)OC(OC2C(Oc3cccc4c(OC(=O)CC(C)NC(=O)C(F)(F)F)c5c(=O)oc6ccc(C)c7c(=O)oc(c34)c5c67)OC(C)C3OC(c4ccccc4Cl)OC32)C1O (centres unmarked) [compound 94], the LD50 ([1]; iv) was ≥ 80 mg/kg and the response vs control in vivo at 80 mg/kg (P-388 leukemia cells; [2]) was 183%.

In the case of COC1C(O)C(C)OC(OC2C(Oc3cccc4c(OC(=O)CC(C)CC(C)(C)C)c5c(=O)oc6ccc(C)c7c(=O)oc(c34)c5c67)OC(C)C3OC(c4ccccc4)OC32)C1O (centres unmarked) [Compound No. 236, 6-O-(3,5,5-Trimethyl-n-Hexanoyl)-3',4'-O-Benzylidene-Chartreusin], the LD50 ([1]; iv) is reported as ≥ 80 mg/kg and the response vs control in vivo at 40 mg/kg (P-388 leukemia cells; [3]) is reported as 145%.

For COC1C(O)C(C)OC(OC2C(Oc3cccc4c(OC(=O)CSc5ccccc5)c5c(=O)oc6ccc(C)c7c(=O)oc(c34)c5c67)OC(C)C3OC(C)(C)OC32)C1O (centres unmarked) [Compound No. 174], the LD50 ([1]; iv) was ≥ 80 mg/kg, the response vs control in vivo at 40 mg/kg (P-388 leukemia cells; [3]) was 148% and the response vs control in vivo at 80 mg/kg (P-388 leukemia cells; [2]) was 198%.

In the case of COC1C(O)C(C)OC(OC2C(Oc3cccc4c(OC(=O)CCNC=O)c5c(=O)oc6ccc(C)c7c(=O)oc(c34)c5c67)OC(C)C3OC(CCc4ccccc4)OC32)C1O (centres unmarked) [compound 83], the LD50 ([1]; iv) is reported as ≥ 80 mg/kg, the response vs control in vivo at 40 mg/kg (P-388 leukemia cells; [3]) is reported as 144% and the response vs control in vivo at 80 mg/kg (P-388 leukemia cells; [2]) is reported as 208%.

With COC1C(O)C(C)OC(OC2C(Oc3cccc4c(OC(=O)C(CNC(=O)OCc5ccccc5)C(C)C)c5c(=O)oc6ccc(C)c7c(=O)oc(c34)c5c67)OC(C)C3OC(c4ccccc4)OC32)C1O (centres unmarked) [compound 70] the LD50 ([1]; iv) was ≥ 40 mg/kg, the response vs control in vivo at 20 mg/kg (P-388 leukemia cells; [2]) was 135% and the response vs control in vivo at 40 mg/kg (P-388 leukemia cells; [3]) was 181%.

In the case of COC1C(O)C(C)OC(OC2C(Oc3cccc4c(OC(=O)CN(C)C(=O)C(F)(F)F)c5c(=O)oc6ccc(C)c7c(=O)oc(c34)c5c67)OC(C)C3OC(c4ccccc4F)OC32)C1O (centres unmarked) [compound 82], the LD50 ([1]; iv) is reported as ≥ 80 mg/kg, the response vs control in vivo at 40 mg/kg (P-388 leukemia cells; [3]) is reported as 148% and the response vs control in vivo at 80 mg/kg (P-388 leukemia cells; [2]) is reported as 205%.

With COC1C(O)C(C)OC(OC2C(Oc3cccc4c(OC(=O)CN(C)C(=O)C(F)(F)F)c5c(=O)oc6ccc(C)c7c(=O)oc(c34)c5c67)OC(C)C3OC(c4ccccc4)OC32)C1O (centres unmarked) [Compound No. 25] the LD50 ([1]; iv) was ≥ 40 mg/kg and the response vs control in vivo at 20 mg/kg (P-388 leukemia cells; [2]) was 212%.

In the case of C=CCCC(=O)Oc1c2cccc(OC3OC(C)C4OC(C)(C)OC4C3OC3OC(C)C(O)C(OC)C3O)c2c2oc(=O)c3c(C)ccc4oc(=O)c1c2c43 (centres unmarked) [Compound No. 175], the LD50 ([1]; iv) is reported as ≥ 80 mg/kg, the response vs control in vivo at 40 mg/kg (P-388 leukemia cells; [3]) is reported as 145% and the response vs control in vivo at 80 mg/kg (P-388 leukemia cells; [2]) is reported as 208%.

In the case of COC1C(O)C(C)OC(OC2C(Oc3cccc4c(OC(=O)C(C)CN(C)C)c5c(=O)oc6ccc(C)c7c(=O)oc(c34)c5c67)OC(C)C3OC(c4ccccc4)OC32)C1O (stereo not drawn) [Compound No. 1, 6-O-(N,N-Dimethyl-β-Amino-Isobutyryl)-3',4'-O-Benzylidene-ChartreusinHydrochloride], the LD50 ([1]; iv) is reported as ≥ 40 mg/kg, the response vs control in vivo at 20 mg/kg (P-388 leukemia cells; [2]) is reported as 138% and the response vs control in vivo at 40 mg/kg (P-388 leukemia cells; [3]) is reported as 214%.

For COC1C(O)C(C)OC(OC2C(Oc3cccc4c(OC(=O)CCNC(=O)OCc5ccccc5)c5c(=O)oc6ccc(C)c7c(=O)oc(c34)c5c67)OC(C)C3OC(C)(C)OC32)C1O (centres unmarked) [compound 107], the LD50 ([1]; iv) was ≥ 100 mg/kg, the response vs control in vivo at 40 mg/kg (P-388 leukemia cells; [3]) was 139% and the response vs control in vivo at 80 mg/kg (P-388 leukemia cells; [2]) was 185%.

From patent US4760136A, “Chartreusin derivatives and salts thereof” (Ishihara Sangyo Kaisha, Ltd., priority 1984, dated 1988)
